Results taken from paper PMC4976316, “A pivotal role of vacuolar H^+-ATPase in regulation of lipid production in Phaeodactylum tricornutum” (Scientific Reports, 2016).

Target: T1, Vacuolar H^+-ATPase (V-ATPase) (Phaeodactylum tricornutum, UniProt B7G3I2+B7GCN4)
T1 construct: gene PHATRDRAFT_16442; native complex in microsomal membrane protein from algal cells, not purified; subunit genes not identified; with V-type proton ATPase subunit a; V-type proton ATPase catalytic subunit A; V-type proton ATPase subunit B; V-type proton ATPase subunit C; V-type proton ATPase subunit D; V-type proton ATPase subunit E; V-type proton ATPase subunit F; V-type proton ATPase subunit G; V-type proton ATPase subunit H; V-type proton ATPase subunit d
Assay: concanamycin A-sensitive ATPase activity (phosphate release) of microsomal membranes
Format: cell-based
Conditions: 100 nM BFA1 added to the growing culture, enzyme assayed afterwards in microsomes; days-long treatment, indirect effects possible

CO/C1=C\C(C)=C\[C@@H](C)[C@@H](O)[C@@H](C)C/C(C)=C/C=C/[C@H](OC)[C@@H]([C@@H](C)[C@@H](O)[C@H](C)[C@@]2(O)C[C@@H](O)[C@H](C)[C@@H](C(C)C)O2)OC1=O [BFA1, bafilomycin A1]
% decrease of V-ATPase activity at 100 nM: ~ 66%
